The text below walks through data of patent US7491794B2, “Macrocyclic compounds as inhibitors of viral replication” (Intermune, Inc., priority 2003, dated 2009).

The subject of test [1] is HCV sub-genomic replicon, GS4.3. The test is described as follows: Quantitation by ELISA of NPTII in the HCV sub-genomic replicon, GS4.3, Section B. It is filed as cell-based. The conditions noted are these: Hepatitis C virus, read-out: Replicon EC50. In a few lines: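 GS4.3 cells (HuH-7 carrying HCV 1377/NS3-3′ replicon) were treated 72 h at 37 °C with inhibitors in 3-fold dilutions, 1% DMSO, no G418. Lysate NPTII was measured by ELISA (TMB, 450 nm). Signal as % of DMSO control; EC50 from 4-parameter fit.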

In the next test the target is T1, NS3-NS4A protease (Hepatitis C virus genotype 1a, UniProt P27958).
T1 construct: Recombinant E. coli or Baculovirus full-length NS3 was diluted to 3.33 μM with assay buffer; made in house; host or cells: E. coli or baculovirus (BV) system
The test is described as follows: NS3-NS4A protease assay (NS3 inhibition assay, RETS1 substrate), Section B. Conditions: read-out: NS3-NS4A IC50. It is filed as biochemical. The method in brief:
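Full-length NS3 (E. coli or baculovirus) precomplexed with excess NS4A-2 peptide, run at 2 nM (E. coli) or 3 nM (BV) NS3; compounds pre-incubated 10 min at room temperature before RETS1 substrate. Fluorescence (ex 335/em 495 nm) read kinetically 30 min; IC50 from four-parameter fit, converted to Ki via Ki=IC50/(1+[S]/Km).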

Where two headings read alike, the source gives them in different places.

T1 sequence (P27958 1027-1657): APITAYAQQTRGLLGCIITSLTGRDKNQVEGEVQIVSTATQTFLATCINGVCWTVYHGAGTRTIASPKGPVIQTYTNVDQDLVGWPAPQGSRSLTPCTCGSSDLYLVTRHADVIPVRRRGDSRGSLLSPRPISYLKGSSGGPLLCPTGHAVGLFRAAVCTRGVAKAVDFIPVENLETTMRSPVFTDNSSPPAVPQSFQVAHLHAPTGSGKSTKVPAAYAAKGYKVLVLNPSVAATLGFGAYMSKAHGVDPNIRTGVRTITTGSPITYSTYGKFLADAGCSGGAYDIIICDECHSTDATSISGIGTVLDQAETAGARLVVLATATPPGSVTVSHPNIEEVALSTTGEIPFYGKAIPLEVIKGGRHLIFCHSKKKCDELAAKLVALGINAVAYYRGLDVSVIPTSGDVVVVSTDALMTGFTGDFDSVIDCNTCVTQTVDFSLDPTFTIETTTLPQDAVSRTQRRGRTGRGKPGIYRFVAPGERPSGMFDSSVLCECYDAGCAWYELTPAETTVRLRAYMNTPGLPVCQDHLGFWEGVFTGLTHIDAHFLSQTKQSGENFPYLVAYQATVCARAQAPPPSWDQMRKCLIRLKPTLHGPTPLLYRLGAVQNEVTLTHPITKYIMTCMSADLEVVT

As usually defined, the EC50 is the concentration needed to bring the measured effect to its halfway point. What is called IC50 is the concentration needed to halve the response being measured. As for `CC(C)(C)NC(=O)N[C@H]1CCCCC/C=C\[C@@H]2C[C@@]2(C(=O)O)NC(=O)[C@@H]2C[C@@H](OC(=O)N3Cc4cc(Cl)c(Cl)cc4C3)CN2C1=O` [AR00320450, (1S,4R,6S,14S,18R)-14-(3-tert-Butyl-ureido)-18-(5,6-dichloro-1,3-dihydro-isoindole-2-carbonyloxy)-2,15-dioxo-3,16-diaza-tricyclo[14.3.0.0^4,6]nonadec-7-ene-4-carboxylic acid], the half-maximal effective concentration (EC50) in test [1] (GS4.3 cells, 72 h incubation) is under 10000 nM. For the same compound, the IC50 at NS3-NS4A protease is under 1000 nM.

On to `O=C(N[C@H]1CCCCC/C=C\[C@@H]2C[C@@]2(C(=O)NS(=O)(=O)C2CC2)NC(=O)C2C[C@@H](OC(=O)N3CCc4ccccc4C3CN3CCCCC3)CN2C1=O)OC1CCCC1` (stereo partly drawn) [AR00320506, (1S,4R,6S,14S,18R)-1-Piperidin-1-ylmethyl-3,4-dihydro-1H-isoquinoline-2-carboxylic acid 14-cyclopentyloxycarbonylamino-4-cyclopropanesulfonylaminocarbonyl-2,15-dioxo-3,16-diaza-tricyclo[14.3.0.0^4,6]nonadec-7-en-18-yl ester], for which the EC50 in test [1] (GS4.3 cells, 72 h incubation) was under 100 nM. For the same compound, on NS3-NS4A protease, the 50% inhibitory concentration (IC50) is under 100 nM.

Regarding `CC(C)(C)OC(=O)N[C@H]1CCCCC/C=C\[C@@H]2C[C@@]2(C(=O)NS(=O)(=O)c2ccccc2)NC(=O)[C@@H]2C[C@@H](OC(=O)N3CCc4ccccc4C3)CN2C1=O` [AR00320547, (1S,4R,6S,14S,18R)-3,4-Dihydro-1H-isoquinoline-2-carboxylic acid 4-benzenesulfonylaminocarbonyl-14-tert-butoxycarbonylamino-2,15-dioxo-3,16-diaza-tricyclo[14.3.0.0^4,6]nonadec-7-en-18-yl ester], the 50% effective concentration (EC50) in test [1] (GS4.3 cells, 72 h incubation) was under 100 nM. Also, the IC50 on NS3-NS4A protease is under 100 nM.

On to `COc1ccc(S(=O)(=O)NC(=O)[C@@]23C[C@H]2/C=C\CCCCC[C@H](NC(=O)OC(C)(C)C)C(=O)N2C[C@H](OC(=O)N4CCc5ccccc5C4)C[C@H]2C(=O)N3)cc1` [AR00320548, (1S,4R,6S,14S,18R)-3,4-Dihydro-1H-isoquinoline-2-carboxylic acid 14-tert-butoxycarbonylamino-4-(4-methoxy-benzenesulfonylaminocarbonyl)-2,15-dioxo-3,16-diaza-tricyclo[14.3.0.0^4,6]nonadec-7-en-18-yl ester], for which the EC50 in test [1] (72 h) is under 100 nM. In addition, on NS3-NS4A protease, the IC50 was under 100 nM.

`Cc1ccc(S(=O)(=O)NC(=O)[C@@]23C[C@H]2/C=C\CCCCC[C@H](NC(=O)OC(C)(C)C)C(=O)N2C[C@H](OC(=O)N4CCc5ccccc5C4)C[C@H]2C(=O)N3)cc1` [AR00320549, (1S,4R,6S,14S,18R)-3,4-Dihydro-1H-isoquinoline-2-carboxylic acid 14-tert-butoxycarbonylamino-2,15-dioxo-4-(toluene-4-sulfonylaminocarbonyl)-3,16-diaza-tricyclo[14.3.0.0^4,6]nonadec-7-en-18-yl ester]: the EC50 in test [1] (72 h) is under 100 nM. Further, at NS3-NS4A protease, the IC50 was under 100 nM.

Regarding `O=C(N[C@H]1CCCCC/C=C\[C@@H]2C[C@@]2(C(=O)NS(=O)(=O)C2CC2)NC(=O)[C@@H]2C[C@@H](OC(=O)N3CCc4ccccc4[C@@H]3CN3CCCCC3)CN2C1=O)OC1CCCC1` [AR00320556, (1S,4R,6S,14S,18R)-1-Piperidin-1R-ylmethyl-3,4-dihydro-1H-isoquinoline-2-carboxylic acid 14-cyclopentyloxycarbonylamino-4-cyclopropanesulfonylaminocarbonyl-2,15-dioxo-3,16-diaza-tricyclo[14.3.0.0^4,6]nonadec-7-en-18-yl ester], in test [1] (GS4.3 cells, 72 h incubation), the EC50 is under 100 nM. Besides, on NS3-NS4A protease, the half-inhibitory concentration (IC50) was under 100 nM.

`O=C(N[C@H]1CCCCC/C=C\[C@@H]2C[C@@]2(C(=O)NS(=O)(=O)C2CC2)NC(=O)[C@@H]2C[C@@H](OC(=O)N3CCc4ccccc4[C@H]3CN3CCCCC3)CN2C1=O)OC1CCCC1` [AR00320557, (1S,4R,6S,14S,18R)-1-Piperidin-1S-ylmethyl-3,4-dihydro-1H-isoquinoline-2-carboxylic acid 14-cyclopentyloxycarbonylamino-4-cyclopropanesulfonylaminocarbonyl-2,15-dioxo-3,16-diaza-tricyclo[14.3.0.0^4,6]nonadec-7-en-18-yl ester]: the EC50 in test [1] (GS4.3 cells, 72 h incubation) was under 100 nM. Moreover, the 50% inhibitory concentration (IC50) on NS3-NS4A protease is under 100 nM.

As for `O=C(NC1CCCC1)N[C@H]1CCCCC/C=C\[C@@H]2C[C@@]2(C(=O)NS(=O)(=O)C2CC2)NC(=O)[C@@H]2C[C@@H](OC(=O)N3Cc4ccc(Cl)cc4C3)CN2C1=O` [AR00320574, (1S,4R,6S,14S,18R)-5-Chloro-1,3-dihydro-isoindole-2-carboxylic acid 14-(3-cyclopentyl-ureido)-4-cyclopropanesulfonylaminocarbonyl-2,15-dioxo-3,16-diaza-tricyclo[14.3.0.0^4,6]nonadec-7-en-18-yl ester], the EC50 in test [1] (GS4.3 cells, 72 h incubation) was under 100 nM. In addition, at NS3-NS4A protease, the half-inhibitory concentration (IC50) is under 100 nM.

As to `O=C(NC1CCCC1)N[C@H]1CCCCC/C=C\[C@@H]2C[C@@]2(C(=O)NS(=O)(=O)C2CC2)NC(=O)[C@@H]2C[C@@H](OC(=O)N3Cc4cc(Cl)c(Cl)cc4C3)CN2C1=O` [AR00320575, (1S,4R,6S,14S,18R)-5,6-Dichloro-1,3-dihydro-isoindole-2-carboxylic acid 14-(3-cyclopentyl-ureido)-4-cyclopropanesulfonylaminocarbonyl-2,15-dioxo-3,16-diaza-tricyclo[14.3.0.0^4,6]nonadec-7-en-18-yl ester], in test [1] (GS4.3 cells, 72 h incubation), the concentration for a half-maximal effect (EC50) was under 1000 nM. Also, the IC50 at NS3-NS4A protease was under 100 nM.

Consider `COc1ccc2[nH]c3c(c2c1)CCN(C(=O)O[C@@H]1C[C@H]2C(=O)N[C@]4(C(=O)O)C[C@H]4/C=C\CCCCC[C@H](NC(=O)OC(C)(C)C)C(=O)N2C1)C3` [AR00320577, (1S,4R,6S,14S,18R)-14-tert-Butoxycarbonylamino-18-(6-methoxy-1,3,4,9-tetrahydro-b-carboline-2-carbonyloxy)-2,15-dioxo-3,16-diaza-tricyclo[14.3.0.0^4,6]nonadec-7-ene-4-carboxylic acid], for which the EC50 in test [1] (GS4.3 cells, 72 h incubation) is under 10000 nM. Further, the IC50 at NS3-NS4A protease is under 1000 nM.

With `O=C(N[C@H]1CCCCC/C=C\[C@@H]2C[C@@]2(C(=O)NS(=O)(=O)C2CC2)NC(=O)[C@@H]2C[C@@H](OC(=O)N3CCc4ccccc4C3)CN2C1=O)OCC(F)(F)F` [AR00320578, (1S,4R,6S,14S,18R)-3,4-Dihydro-1H-isoquinoline-2-carboxylic acid 4-cyclopropanesulfonylaminocarbonyl-2,15-dioxo-14-(2,2,2-trifluoro-ethoxycarbonylamino)-3,16-diaza-tricyclo[14.3.0.0^4,6]nonadec-7-en-18-yl ester], the 50% effective concentration (EC50) in test [1] (GS4.3 cells, 72 h incubation) was under 100 nM. Further, the half-maximal inhibitory concentration (IC50) at NS3-NS4A protease is under 100 nM.

As to `O=C(N[C@H]1CCCCC/C=C\[C@@H]2C[C@@]2(C(=O)NS(=O)(=O)C2CC2)NC(=O)[C@@H]2C[C@@H](OC(=O)N3CCc4ccccc4C3)CN2C1=O)OCC(F)F` [AR00320579, (1S,4R,6S,14S,18R)-3,4-Dihydro-1H-isoquinoline-2-carboxylic acid 4-cyclopropanesulfonylaminocarbonyl-14-(2,2-difluoro-ethoxycarbonylamino)-2,15-dioxo-3,16-diaza-tricyclo[14.3.0.0^4,6]nonadec-7-en-18-yl ester], the EC50 in test [1] (GS4.3 cells, 72 h incubation) was under 100 nM. The concentration for half-maximal inhibition (IC50) on NS3-NS4A protease was under 100 nM.

For `O=C(N[C@H]1CCCCC/C=C\[C@@H]2C[C@@]2(C(=O)NS(=O)(=O)C2CC2)NC(=O)[C@@H]2C[C@@H](OC(=O)N3CCc4ccccc4C3)CN2C1=O)OC(CF)CF` [AR00320580, (1S,4R,6S,14S,18R)-3,4-Dihydro-1H-isoquinoline-2-carboxylic acid 4-cyclopropanesulfonylaminocarbonyl-14-(2-fluoro-1-fluoromethyl-ethoxycarbonylamino)-2,15-dioxo-3,16-diaza-tricyclo[14.3.0.0^4,6]nonadec-7-en-18-yl ester], the EC50 in test [1] (GS4.3 cells, 72 h incubation) is under 100 nM. For the same compound, the IC50 at NS3-NS4A protease was under 100 nM.

As for `CC(OC(=O)N[C@H]1CCCCC/C=C\[C@@H]2C[C@@]2(C(=O)NS(=O)(=O)C2CC2)NC(=O)[C@@H]2C[C@@H](OC(=O)N3CCc4ccccc4C3)CN2C1=O)C(F)(F)F` (stereo partly drawn) [AR00320581, (1S,4R,6S,14S,18R)-3,4-Dihydro-1H-isoquinoline-2-carboxylic acid 4-cyclopropanesulfonylaminocarbonyl-2,15-dioxo-14-(2,2,2-trifluoro-1-methyl-ethoxycarbonylamino)-3,16-diaza-tricyclo[14.3.0.0^4,6]nonadec-7-en-18-yl ester], the EC50 in test [1] (GS4.3 cells, 72 h incubation) was under 100 nM. Also, the IC50 at NS3-NS4A protease is under 100 nM.

Regarding `CC(C)(OC(=O)N[C@H]1CCCCC/C=C\[C@@H]2C[C@@]2(C(=O)NS(=O)(=O)C2CC2)NC(=O)[C@@H]2C[C@@H](OC(=O)N3CCc4ccccc4C3)CN2C1=O)C(F)(F)F` [AR00320582, (1S,4R,6S,14S,18R)-3,4-Dihydro-1H-isoquinoline-2-carboxylic acid 4-cyclopropanesulfonylaminocarbonyl-2,15-dioxo-14-(2,2,2-trifluoro-1,1-dimethyl-ethoxycarbonylamino)-3,16-diaza-tricyclo[14.3.0.0^4,6]nonadec-7-en-18-yl ester], the EC50 in test [1] (GS4.3 cells, 72 h incubation) is under 100 nM. The IC50 at NS3-NS4A protease was under 100 nM.

Turning to `C[C@H]1CN(C(=O)O[C@@H]2C[C@H]3C(=O)N[C@]4(C(=O)NS(=O)(=O)C5CC5)C[C@H]4/C=C\CCCCC[C@H](NC(=O)OC(C)(C)C)C(=O)N3C2)Cc2ccccc21` [AR00333462, (1S,4R,6S,14S,18R)-4R-Methyl-3,4-dihydro-1H-isoquinoline-2-carboxylic acid 14-tert-butoxycarbonylamino-4-cyclopropanesulfonylaminocarbonyl-2,15-dioxo-3,16-diaza-tricyclo[14.3.0.0^4,6]nonadec-7-en-18-yl ester], the EC50 in test [1] (GS4.3 cells, 72 h incubation) is under 100 nM. Also, the IC50 on NS3-NS4A protease was under 100 nM.
